Read-outs that look alike come from different tables or passages of the source. Where a SMILES comes first, the peptide text is derived from it. [ ]: non-standard residue; d: D form. pGlu = O=C1CC[C@@H](C(=O)O)N1

A short description of series [1]: Plasma concentrations of Nexvax2 peptides (UHPLC-MS/MS), pre-treatment and 45 minutes post-treatment. The class given is in vivo, human. The following applies: 45 minutes after treatment at levels above 300 μg; almost all participants; LLOQ 2 ng/mL. The protocol: • Weekly Gastrointestinal Symptom Rating Scale (GSRS) scores, and relative change in plasma cytokine levels 4 hours after 150 microgram and higher doses. Plasma concentrations pre- and 45 min post-dose, and villous height to crypt depth ratio (VH:CrD) in 2nd part duodenal biopsies were assessed in Cohort 3.
Pharmacodynamics assessments included a 38plex assay to profile cytokine and chemokine concentrations in plasma before and up to 10 hours post-treatment at visits corresponding to administration of Nexvax2 at the previously determined maximum tolerated dose (150 μg) and at each of the higher dose levels. The percentage of leukocytes in whole blood that corresponded to T cells or helper, cytotoxic, regulatory, or activated (CCR6-positive) T cell subsets was estimated using epigenetic cell counting before and after dosing during the treatment period at times indicated. Pharmacokinetics of the three constituent peptides in Nexvax2 were assessed pre-treatment and 45 minutes post-treatment in cohort 3 at visits corresponding to dose levels 300 μg and above. Serum levels of anti-Nexvax2 antibodies were also assessed in cohort 3 at times shown. A four-week observational period followed the end of treatment visit.
Pharmacokinetics of Nexvax2 peptides was summarised by dose level and presented as mean (95% CI) plasma concentrations; correlation coefficients were used to compare the plasma concentrations of the Nexvax2 peptides. […] Data from cohorts 1 and 2 were analysed separately according to the Nexvax2 starting dose levels of 3 μg or 30 μg. […]
Blood was collected 30 minutes before and 45 minutes after study drug administration. […] Charles River Laboratories Ashland, LLC (Ashland, Ohio, USA) measured the concentrations of NPL001, NPL002, and NPL003. […] Reconstituted sample extracts were analysed with a UHPLC-MS/MS assay using a Waters Acquity® UPLC Peptide BEH C18 Column, 300 Å, 1.7-μm particle-size, 2.1×50 mm column (Waters Corporation, Milford, Mass., USA). […]

The conditions of series [2]: pH 7.
The nature of series [3]: Solubility in normal saline at pH 7.

A word on the solubility: it is the concentration that dissolves in the medium under given conditions. A high value points to much dissolved substance. Turning to `CC(C)C[C@H](NC(=O)[C@@H]1CCC(=O)N1)C(=O)N[C@@H](CCC(N)=O)C(=O)N1CCC[C@H]1C(=O)N[C@@H](Cc1ccccc1)C(=O)N1CCC[C@H]1C(=O)N[C@@H](CCC(N)=O)C(=O)N1CCC[C@H]1C(=O)N[C@@H](CCC(=O)O)C(=O)N[C@@H](CC(C)C)C(=O)N1CCC[C@H]1C(=O)N[C@@H](Cc1ccc(O)cc1)C(=O)N1CCC[C@H]1C(=O)N[C@@H](CCC(N)=O)C(=O)N1CCC[C@H]1C(=O)N[C@@H](CCC(N)=O)C(N)=O` [NPL001, (pE)LQPFPQPELPYPQPQ-NH2] ([pGlu]LQPFPQPELPYPQPQ-NH2), in series [1], the “Plasma concentration versus limit of quantification” value (“Plasma concentration versus limit” for short) is “above the limit of quantification”. Further, the solubility in series [2] was greater than 50 mg/mL.

Consider `NC(=O)CC[C@H](NC(=O)[C@H](Cc1c[nH]c2ccccc12)NC(=O)[C@@H]1CCCN1C(=O)[C@H](Cc1ccccc1)NC(=O)[C@@H]1CCCN1C(=O)[C@H](CCC(N)=O)NC(=O)[C@H](CCC(=O)O)NC(=O)[C@@H]1CCCN1C(=O)[C@H](CCC(N)=O)NC(=O)[C@@H]1CCCN1C(=O)[C@H](Cc1ccccc1)NC(=O)[C@@H]1CCCN1C(=O)[C@H](CCC(N)=O)NC(=O)[C@@H]1CCC(=O)N1)C(=O)N1CCC[C@H]1C(N)=O` [NPL002, (pE)QPFPQPEQPFPWQP-NH2] ([pGlu]QPFPQPEQPFPWQP-NH2), for which the “Plasma concentration versus limit” value in series [1] was “above the limit of quantification”. In series [3], the solubility was no more than 25 mg/mL.

Consider `CC[C@H](C)[C@H](NC(=O)[C@@H]1CCCN1C(=O)[C@H](CCC(N)=O)NC(=O)[C@H](CCC(=O)O)NC(=O)[C@@H]1CCCN1C(=O)[C@@H]1CCC(=O)N1)C(=O)N1CCC[C@H]1C(=O)N[C@@H](CCC(=O)O)C(=O)N[C@@H](CCC(N)=O)C(=O)N1CCC[C@H]1C(=O)N[C@@H](CCC(N)=O)C(=O)N1CCC[C@H]1C(=O)N[C@@H](Cc1ccc(O)cc1)C(=O)N1CCC[C@H]1C(=O)N[C@@H](CCC(N)=O)C(=O)N[C@@H](CCC(N)=O)C(N)=O` [NPL003], for which the “Plasma concentration versus limit” value in series [1] is reported as “above the limit of quantification”. In series [3], the solubility was greater than 50 mg/mL.

Values taken from US20200397852A1, “DOSING REGIMENS FOR CELIAC DISEASE” (ImmusanT, Inc., priority 2017, published 2020).
